Source: patent US10435399B2, “HDAC6 inhibitory heterocyclic compound” (TAKEDA PHARMACEUTICAL COMPANY LIMITED, priority 2017, dated 2019)

tested on: TK6 cells; assay: γH2AX assay using TK6 cells; type: cell-based, Human; conditions: 4 hr treatment, up to 100 μM
Procedure: γH2AX Assay Using TK6 Cells
Human lymphoblasts-derived TK6 cells were treated with the compounds of Examples 489, 512 or 519 at 0, 10, 30 or 100 μmol/L (final concentration) for 4 hr, and the presence or absence of DNA damage was evaluated by measuring phosphorylation of histone H2AX (γH2AX) as a marker. In addition, cytotoxicity after 24-hr treatment was also evaluated.
Exponentially growing TK6 cells were prepared at the cell density of 4×10^5 cells/mL in a culture medium, and was added to a 96-well plate by 100 μL/well. A test compound solution (2% DMSO) prepared using a culture solution, having twice the concentration on the above-mentioned final concentrations, was added thereto by 100 μL/well. This plate was incubated at 37° C., the cell suspension after 4 hr was sampled, and stained using In Vitro MultiFlow™ DNA Damage Kit (Litron), and H2AX phosphorylation level in each nucleus was measured using a flow cytometer and average value was calculated. The H2AX phosphorylation level in the concurrent vehicle control group was also measured and average value was calculated. The rate of change in the H2AX phosphorylation level in the treatment groups relative to that in the control group was calculated, and Dunnett test (significance level: two-tailed 1%) was performed. In addition, the cell suspension after 24 hr treatment was sampled, and the nucleus number was measured, and variation in the nucleus number in the treatment groups relative to that in the concurrent vehicle control group was used as an indicator of cytotoxicity. […] Therefore, the potential of the compounds for DNA strand breakage was judged to be negative under this test condition.

| SMILES | histone H2AX phosphorylation (γH2AX) resulted from DNA strand breakage | potential for DNA strand breakage (judgement) |
| --- | --- | --- |
| CC(F)(F)C(=O)N[C@H]1[C@H](N2Cc3ncc(-c4nnc(C(F)F)o4)cc3C2=O)CCCC1(F)F [Example 598, N-((1S,6R)-6-(3-(5-(difluoromethyl)-1,3,4-oxadiazol-2-yl)-5-oxo-5,7-dihydro-6H-pyrrolo[3,4-b]pyridin-6-yl)-2,2-difluorocyclohexyl)-2,2-difluoropropanamide] | did not induce histone H2AX phosphorylation | negative |

tested on: bone-marrow cells; assay: Micronucleus test in rats (bone-marrow cells); type: in vivo, rats (Crl:CD(SD)); conditions: rat bone marrow, positive control 20 mg/kg/day
Procedure: Combination Assay of Micronucleus Test and Comet Assay in Rats […] Bone-marrow smear for micronucleus analysis was prepared as follows. Femur was cut at both ends, and washed with fetal bovine serum (FBS) in a centrifuging tube, and the obtained bone-marrow fluid was centrifuged for 5 min at room temperature. The supernatant was removed, and the cell sediment was suspended in the remaining small amount of the supernatant. A part of the suspension was dropped on a glass slide, and a cover glass was placed thereon to give a bone-marrow smear. The smear was dried well, and fixed with methanol for 5 min. The bone-marrow smear of negative control, that of treatment groups as well as the previously prepared bone-marrow smear of positive control group were encoded, and observed by the blind method. An acridine orange solution (40 μg/mL) was dropped (several drops) to the smear just before observation, and a cover glass was placed thereon. […] In addition, as an index of growth inhibitory effect on bone-marrow cell, total of 500 erythrocytes [immature erythrocytes+mature erythrocytes (ME)] per individual were observed, and immature erythrocyte rate (IE %) relative to the total number of erythrocytes was calculated.

| SMILES | micronucleated immature erythrocytes incidences (MNIE %), mean ± SD |
| --- | --- |
| O=P1(N(CCCl)CCCl)NCCCO1 (stereo not drawn) [cyclophosphamide] | ↑2.77 ± 0.88 % |

molecular target: T1, HDAC6 enzyme (Homo sapiens, UniProt Q9UBN7); assay: HDAC6 enzyme inhibitory activity (HDAC-Glo I/II Assay kit); type: biochemical; conditions: 10 μM; wells without enzyme = 100% inhibition
T1 construct: transducing full length HDAC6 gene into Sf-9 insect cells; GST; purchased SignalChem; host or cells: Sf-9 insect cells
T1 sequence (Q9UBN7 1-1215): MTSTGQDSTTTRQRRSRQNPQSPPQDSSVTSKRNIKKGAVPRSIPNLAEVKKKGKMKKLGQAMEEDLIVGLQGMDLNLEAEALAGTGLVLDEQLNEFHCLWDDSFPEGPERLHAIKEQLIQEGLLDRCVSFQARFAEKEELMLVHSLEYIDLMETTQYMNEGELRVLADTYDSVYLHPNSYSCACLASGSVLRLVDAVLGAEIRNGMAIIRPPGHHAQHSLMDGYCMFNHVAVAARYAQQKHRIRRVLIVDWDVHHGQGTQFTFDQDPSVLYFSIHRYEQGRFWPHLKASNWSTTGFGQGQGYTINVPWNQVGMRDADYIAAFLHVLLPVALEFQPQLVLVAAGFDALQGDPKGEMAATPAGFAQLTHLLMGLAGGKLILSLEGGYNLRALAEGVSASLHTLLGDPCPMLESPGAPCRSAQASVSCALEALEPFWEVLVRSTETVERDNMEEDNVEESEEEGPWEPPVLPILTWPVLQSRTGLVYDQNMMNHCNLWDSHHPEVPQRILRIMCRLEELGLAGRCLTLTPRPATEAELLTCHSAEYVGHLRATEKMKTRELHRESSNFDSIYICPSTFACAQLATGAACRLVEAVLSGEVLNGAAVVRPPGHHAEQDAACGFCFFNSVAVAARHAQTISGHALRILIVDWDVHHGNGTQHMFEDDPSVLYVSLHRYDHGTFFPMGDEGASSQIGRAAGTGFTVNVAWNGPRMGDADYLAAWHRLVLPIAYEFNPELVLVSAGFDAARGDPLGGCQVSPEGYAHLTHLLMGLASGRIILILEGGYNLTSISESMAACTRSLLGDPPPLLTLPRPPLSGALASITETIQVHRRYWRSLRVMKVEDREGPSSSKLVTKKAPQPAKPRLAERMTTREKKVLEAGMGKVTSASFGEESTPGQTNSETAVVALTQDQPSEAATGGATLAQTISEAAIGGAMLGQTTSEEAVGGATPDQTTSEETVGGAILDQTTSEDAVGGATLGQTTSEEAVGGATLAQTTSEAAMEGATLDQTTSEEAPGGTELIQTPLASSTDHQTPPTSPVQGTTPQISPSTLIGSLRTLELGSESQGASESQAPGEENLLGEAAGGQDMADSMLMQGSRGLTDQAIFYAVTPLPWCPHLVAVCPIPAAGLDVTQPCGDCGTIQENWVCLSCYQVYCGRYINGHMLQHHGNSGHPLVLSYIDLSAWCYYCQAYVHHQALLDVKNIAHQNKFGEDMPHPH
In short: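 Full-length human HDAC6 (GST-purified, Sf-9 expressed) preincubated with compound 60 min at room temperature in Tris-HCl pH 7.5 buffer with MgCl2, KCl, NaCl, glutathione, Tween-20. HDAC-Glo I/II substrate-developer then added, 20 min room temperature, luminescence read. Inhibition relative to no-enzyme wells as 100%.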

| SMILES | HDAC6 inhibitory rate (%) (10 μM) |
| --- | --- |
| O=C1c2cc(-c3nnc(C(F)F)o3)cnc2CN1[C@@H]1COCC[C@H]1Oc1ccc(F)c(F)c1 [Example 649, 1,5-anhydro-2,4-dideoxy-2-(3-(5-(difluoromethyl)-1,3,4-oxadiazol-2-yl)-5-oxo-5,7-dihydro-6H-pyrrolo[3,4-b]pyridin-6-yl)-3-O-(3,4-difluorophenyl)-threo-pentitol (Optical Isomer)] | 100 |
| O=C1c2cc(-c3nnc(C(F)F)o3)cnc2CN1[C@@H]1COCC[C@H]1Oc1cc(F)cc(F)c1 [Example 651, 1,5-anhydro-2,4-dideoxy-2-(3-(5-(difluoromethyl)-1,3,4-oxadiazol-2-yl)-5-oxo-5,7-dihydro-6H-pyrrolo[3,4-b]pyridin-6-yl)-3-O-(3,5-difluorophenyl)-threo-pentitol (optical isomer)] | 100 |
| O=C1c2cc(-c3nnc(C(F)F)o3)cnc2CN1[C@@H]1COCC[C@H]1Oc1cccc(F)c1 [Example 653, 1,5-anhydro-2,4-dideoxy-2-(3-(5-(difluoromethyl)-1,3,4-oxadiazol-2-yl)-5-oxo-5,7-dihydro-6H-pyrrolo[3,4-b]pyridin-6-yl)-3-O-(3-fluorophenyl)-threo-pentitol (optical isomer)] | 99 |
| O=C1c2cc(-c3nnc(C(F)F)o3)cnc2CN1[C@@H]1COCC[C@H]1Oc1ccc(F)cc1F [Example 656, 1,5-anhydro-2,4-dideoxy-2-(3-(5-(difluoromethyl)-1,3,4-oxadiazol-2-yl)-5-oxo-5,7-dihydro-6H-pyrrolo[3,4-b]pyridin-6-yl)-3-O-(2,4-difluorophenyl)-threo-pentitol (Optical Isomer)] | 100 |
| O=C1c2cc(-c3nnc(C(F)F)o3)cnc2CN1[C@@H]1COCC[C@H]1Oc1c(F)cccc1F [Example 660, 1,5-anhydro-2,4-dideoxy-2-{3-[5-(difluoromethyl)-1,3,4-oxadiazol-2-yl]-5-oxo-5,7-dihydro-6H-pyrrolo[3,4-b]pyridin-6-yl}-3-O-(2,6-difluorophenyl)-threo-pentitol (optical isomer)] | 100 |

same assay, conditions: 10 μM; wells without enzyme = 100% inhibition; read-out: HDAC6 inhibitory rate (%) (10 μM)

| SMILES | inhibition at 10 µM [%] |
| --- | --- |
| CC(F)(F)C(=O)N[C@H]1[C@H](N2Cc3ncc(-c4nnc(C(F)F)o4)cc3C2=O)CCCC1(F)F [Example 598, N-((1S,6R)-6-(3-(5-(difluoromethyl)-1,3,4-oxadiazol-2-yl)-5-oxo-5,7-dihydro-6H-pyrrolo[3,4-b]pyridin-6-yl)-2,2-difluorocyclohexyl)-2,2-difluoropropanamide] | 100 |
| O=C1c2cc(-c3nnc(C(F)F)o3)cnc2CN1[C@@H]1COCC[C@H]1Oc1cc(F)cc(F)c1 [Example 650, 1,5-anhydro-2,4-dideoxy-2-(3-(5-(difluoromethyl)-1,3,4-oxadiazol-2-yl)-5-oxo-5,7-dihydro-6H-pyrrolo[3,4-b]pyridin-6-yl)-3-O-(3,5-difluorophenyl)-threo-pentitol (optical isomer)] | 99 |
| O=C1c2cc(-c3nnc(C(F)F)o3)cnc2CN1[C@@H]1COCC[C@H]1Oc1cccc(F)c1 [Example 652, 1,5-anhydro-2,4-dideoxy-2-(3-(5-(difluoromethyl)-1,3,4-oxadiazol-2-yl)-5-oxo-5,7-dihydro-6H-pyrrolo[3,4-b]pyridin-6-yl)-3-O-(3-fluorophenyl)-threo-pentitol (optical isomer)] | 100 |
| O=C1c2cc(-c3nnc(C(F)F)o3)cnc2CN1[C@@H]1COCC[C@H]1Oc1ccc(F)cc1F [Example 655, 1,5-anhydro-2,4-dideoxy-2-(3-(5-(difluoromethyl)-1,3,4-oxadiazol-2-yl)-5-oxo-5,7-dihydro-6H-pyrrolo[3,4-b]pyridin-6-yl)-3-O-(2,4-difluorophenyl)-threo-pentitol] | 96 |
| O=C1c2cc(-c3nnc(C(F)F)o3)cnc2CN1[C@@H]1COCC[C@H]1Oc1cccc(F)c1F [Example 657, 1,5-anhydro-2,4-dideoxy-2-{3-[5-(difluoromethyl)-1,3,4-oxadiazol-2-yl]-5-oxo-5,7-dihydro-6H-pyrrolo[3,4-b]pyridin-6-yl}-3-O-(2,3-difluorophenyl)-threo-pentitol (optical isomer)] | 100 |
| O=C1c2cc(-c3nnc(C(F)F)o3)cnc2CN1[C@@H]1COCC[C@H]1Oc1c(F)cccc1F [Example 659, 1,5-anhydro-2,4-dideoxy-2-{3-[5-(difluoromethyl)-1,3,4-oxadiazol-2-yl]-5-oxo-5,7-dihydro-6H-pyrrolo[3,4-b]pyridin-6-yl}-3-O-(2,6-difluorophenyl)-threo-pentitol (optical isomer)] | 99 |
| O=C1c2cc(-c3nnc(C(F)F)o3)cnc2CN1[C@@H]1CCCC[C@@H]1NC(=O)C(F)(F)C(F)(F)F [Example 661, N-[(1S,2R)-2-{3-[5-(difluoromethyl)-1,3,4-oxadiazol-2-yl]-5-oxo-5,7-dihydro-6H-pyrrolo[3,4-b]pyridin-6-yl}cyclohexyl]-2,2,3,3,3-pentafluoropropanamide] | 99 |
